How the values were obtained:
[1] = format: in vivo; conditions: mice
[2] = in vivo; cited from earlier work

Molecule: Rituximab: anti-CD20 monoclonal antibody expressed in mice from plasmid vector containing Rituximab cDNA
- Duration of serum anti-CD20 mAb (Rituximab) expression ([1]; after a single sequential IV injection, 1050 nmol DOTAP 2.5% DP, 75 ug plasmid): over 275 days

Molecule: dexamethasone palmitate
- Serum anti-CD20 mAb (Rituximab) level, in words ([1]; ELISA 24 hrs after sequential injection (Example 18: also over time)): further increases gene expression in vivo

B1: Neupogen: recombinant human G-CSF protein (protein, UniProt P09919 31-207, looked up)
Granulocyte …: TPLGPASSLPQSFLLKCLEQVRKIQGDGAALQEKLVSECATYKLCHPEELVLLGHSLGIPWAPLSSCPSQALQLAGCLSQLHSGLFLYQGLLQALEGISPELGPTLDTLQLDVADFATTIWQQMEELGMAPALQPTQGAMPAFASAFQRRAGGVLVASHLQSFLEVSYRVLRHLAQP
modifications: filgrastim
notes: recombinant human G-CSF protein
- Time for serum HG-CSF levels to return to baseline after each daily dose [2]: approximately 14 hours

Source: patent US11541130B2, “Systems and methods for nucleic acid expression in vivo” (DNARx, priority 2017, dated 2023)
